The subject of assay [1] is HCT-8. As to the kind of experiment: Cytotoxicity against human HCT-8 cells assessed as inhibition of cell growth incubated for 48 hrs by MTT assay. The assay is classed as functional, cell-based. As to conditions: HCT-8, 48 h. (Formazan colour is commonly taken as a measure of viable cells.)
Assay [2] concerns MH60. As to the kind of experiment: Cytotoxicity in mouse MH60 cells assessed as inhibition of cell growth. The assay is classed as functional, cell-based.
Assay [3] relates to Candida albicans. As to the kind of experiment: Antifungal activity against Candida albicans assessed as reduction in […] growth. The assay is classed as functional.
Assay [4] has as its system MDA-MB-231. As to the kind of experiment: Growth inhibition of human MDA-MB-231 cells assessed inhibition of cell growth. The assay is classed as functional.
Assay [5] has as its system Staphylococcus aureus. As to the kind of experiment: Antibacterial activity against methicillin resistant Staphylococcus aureus assessed as reduction in bacterial growth. It is filed as functional, organism-based.
For assay [6], the system named is Bacillus mycoides. As to the kind of experiment: Antibacterial activity against Bacillus mycoides assessed as reduction in bacterial growth. The assay is classed as functional.
Assay [7] deals with Mycolicibacterium smegmatis. As to the kind of experiment: Antibacterial activity against Mycolicibacterium smegmatis assessed as reduction in bacterial growth. The assay is classed as functional.
The test system of assay [8] is Vibrio harveyi. As to the kind of experiment: Antimicrobial activity against Vibrio harveyi assessed as bacterial growth inhibition incubated for 12 hrs by serial dilution analysis. It is filed as functional.
For assay [9], the system named is Prorocentrum minimum. As to the kind of experiment: Antimicrobial activity against Prorocentrum minimum assessed as […] growth inhibition. The assay is classed as functional.
Assay [10] has as its system RAW264.7. As to the kind of experiment: Antiinflammatory activity in mouse RAW264.7 cells assessed as inhibition of LPS-induced NO production pretreated with compound for 1 hr followed by LPS-induction and measured after 48 hrs by microplate reader analysis. It is filed as functional, cell-based.
Assay [11] concerns Vibrio harveyi. As to the kind of experiment: Antimicrobial activity against Vibrio harveyi assessed as bacterial growth inhibition. The assay is classed as functional.
A short description of assay [12]: Antioxidant activity assessed as DPPH radical scavenging activity. The assay is classed as functional. (DPPH is a stable violet radical that fades when it is reduced.)
The test system of assay [13] is Kocuria rhizophila. As to the kind of experiment: Antibacterial activity against Kocuria rhizophila KCTC 1915 assessed as reduction in bacterial growth incubated for 24 hrs by Mueller-Hinton broth based assay. It is filed as functional.
Assay [14] deals with Bacillus subtilis. As to the kind of experiment: Antibacterial activity against Bacillus subtilis KCTC 1021 assessed as reduction in bacterial growth incubated for 24 hrs by Mueller-Hinton broth based assay. The assay is classed as functional.
Assay [15] has as its system Staphylococcus aureus. As to the kind of experiment: Antibacterial activity against Staphylococcus aureus KCTC 1927 assessed as reduction in bacterial growth incubated for 24 hrs by Mueller-Hinton broth based assay. The assay is classed as functional.
Assay [16] relates to Staphylococcus aureus. As to the kind of experiment: Antibacterial activity against Staphylococcus aureus assessed as reduction in bacterial growth. The assay is classed as functional.
The test system of assay [17] is Bacillus subtilis. As to the kind of experiment: Antibacterial activity against Bacillus subtilis assessed as reduction in bacterial growth. The assay is classed as functional.
Assay [18] concerns ACHN. As to the kind of experiment: Growth inhibition of human ACHN cells assessed as cell viability incubated for 48 hrs by SRB assay. It is filed as functional. The settings on record: pooled result: one value given for 6 cell lines, strains, targets or settings.
The test system of assay [19] is Micrococcus luteus. As to the kind of experiment: Antimicrobial activity against Micrococcus luteus assessed as bacterial growth inhibition. It is filed as functional.
For assay [20], the system named is HepG2. As to the kind of experiment: Cytotoxicity against human HepG2 cells assessed as inhibition of cell growth. It is filed as functional, cell-based.
In assay [21] the test system is HL-60. As to the kind of experiment: Cytotoxicity against human HL-60 cells assessed as inhibition of cell growth. The assay is classed as functional, cell-based.
Assay [22] has as its system Escherichia coli. As to the kind of experiment: Antibacterial activity against Escherichia coli assessed as reduction in bacterial growth. It is filed as functional.
Assay [23] has as its system Trypanosoma brucei rhodesiense. As to the kind of experiment: Antitrypanosomal activity against Trypanosoma brucei rhodesiense. The assay is classed as functional, organism-based.
For assay [24], the system named is MOLT-4. As to the kind of experiment: Cytotoxicity against human MOLT-4 cells assessed as inhibition of cell growth incubated for 24 hrs by MTT assay. As to conditions: MOLT-4, 24 h. The assay is classed as functional, cell-based.

Converted amounts (≈) assume the structure as drawn. Numbered stars: 1 amine (or outer) side, 2 acyl side, 3 side chain; on linkers, the order of the positions; unused ones are H or OH. Square brackets hold non-standard residues; d marks the D form. Peptide text beside a SMILES is read from it. X1 = CC(C)(O)/C=C/[C@]12C[C@@H](C(=O)[*:2])N([*:1])[C@@H]1Nc1ccc(Br)cc12

Drawing on ChEMBL document CHEMBL5385919, “A Survey of Recently Discovered Naturally Occurring Organohalogen Compounds” (J Nat Prod, 2024), this text covers IC50, MIC and GI50 for 22 compounds.

As a reminder, the IC50 is the concentration that inhibits the measured activity by half. Consider `C=C(COC(=O)Cc1ccc(O)c(Cl)c1)[C@@]12O[C@@H]1[C@@]1(C)C(=CC2=O)CC[C@@H](O)[C@@H]1C`, for which, in [1], the IC50 was 7.3 µM. As for `CC(C)=CCC1OC1(C)C1(O)C(O)C(=O)CC[C@]1(O)CCl` (stereo partly drawn), the IC50 in [2] is 7.5 µM. As a reminder, the MIC is the least concentration at which growth counts as inhibited. Turning to `O=C1NC(=O)c2c1c1c3cc(Cl)ccc3[nH]c1c1[nH]c3ccc(Cl)cc3c21`, the MIC in [3] is 1 µg/mL (≈ 2.54 µM).

Broadly, the GI50 is the concentration that inhibits growth by half. Turning to `CCCC[C@H]1CCC[C@@H](Cl)C[C@@H](OC)c2cc(O)c(c(O)c2)[C@@H](CC)CCC[C@@H](Cl)C[C@@H](OC)c2cc(O)c1c(O)c2`, halving of growth in assay [4] (GI50) required 0.72 µM. As for `COc1ccc2[nH]c3c(O)cccc3c2c1Cl`, the minimum inhibitory concentration (MIC) in assay [5], in assay [6], in assay [7] and in [3] was 32 µg/mL (≈ 129 µM) throughout. For `COc1cc(OC)c2c(O)c3c(=O)cc(C)oc3c(-c3c(OC)cc4c(I)c(O)c5c(=O)cc(C)oc5c4c3OC)c2c1`, the minimal inhibitory concentration (MIC) in assay [8] amounted to 8 µg/mL (≈ 11.5 µM); in [9], 0.61 µg/mL (≈ 0.876 µM). In the case of `C#C/C=C\CC(Br)[C@@H]1C[C@@H](OC(C)=O)[C@H](CCCCCC)O1` (stereo partly drawn), in [10], the half-maximal inhibitory concentration (IC50) was 3.69 µM. Regarding `COC(=O)/C=C/C(=O)N[C@H](Cc1ccc(O)c(Cl)c1)C(=O)OC`, in [11], the MIC worked out at 16 µg/mL (≈ 46.8 µM). `O=Cc1cc(Br)c(O)c(O)c1Cc1ccc(O)c(Br)c1`: the IC50 in assay [12] is 3.5 µM. On to `CC(C)=C(C/C=C(\C)CC[C@@H](Cl)C(C)(C)Cl)C[C@@]1(O)C(=O)c2cc(O)cc(O)c2C(=O)[C@@]1(C)Cl`, for which the minimal inhibitory concentration (MIC) in [13], in assay [14] and in assay [15] was 1 µg/mL (≈ 1.88 µM) in each case.

As to `O=C1Oc2cc(Br)c(O)c(Br)c2/C1=C/c1cc(Br)c(O)c(Br)c1`, the minimum inhibitory concentration (MIC) in assay [16] was found to be 5.2 µM (≈ 2.96 µg/mL). Turning to `CCCC[C@@H](Cl)CCC[C@@H](Cl)C[C@@H](OC)c1cc(O)c([C@@H](CCCC)CCC[C@@H](Cl)C[C@@H](OC)c2cc(O)cc(O)c2)c(O)c1`, the GI50 in assay [4] was 0.72 µM. Consider `CC(C)Cc1c(O)cc2oc3cc(Cl)cn3c(=O)c2c1O`, for which the minimum inhibitory concentration (MIC) in [16], in assay [17] and in [19] was 0.7 µM (≈ 0.215 µg/mL) each time. In addition, the GI50 in assay [18] was 4.9 µM. For `CC(C)c1cc(=O)c2c(cc(O)c3c(=O)c4c(O)c(Br)ccc4c(=O)c32)c1=O`, the figures for the concentration for half-maximal inhibition (IC50) in [5] and in [20] were 0.098 µg/mL (≈ 0.222 µM) and 9.3 µM, respectively. `CC(C)[C@@]1(O)/C=C/[C@](C)(O)CC[C@H](Cl)[C@@]2(C)CC[C@H](O2)[C@](C)(O)CC1`: the half-inhibitory concentration (IC50) in [21] came to 3.67 µM. As for `C[C@]12NC(=N)N[C@@]1(O)c1nc(-c3c[nH]c4ccccc34)cnc1-c1c2[nH]c2cc(Br)ccc12`, the minimum inhibitory concentration (MIC) came to 37.5 µM (≈ 18.8 µg/mL) in assay [22] and 18.5 µM (≈ 9.26 µg/mL) in assay [17]. As for `CC(=O)O[C@@H](C/C=C/Cl)[C@@H](C)C(=O)/C=C/CCNC(=O)CC/C=C/C(C)(C)C`, 1.2 µM corresponded to half-maximal inhibition in assay [23] (IC50). `CC[C@H](C)[C@H]1O[C@H](CC(C)=O)O[C@@]1(C)/C=C/C1=CC2=C(Cl)C(=O)[C@](C)(O)[C@H](OC(C)=O)[C@H]2CO1`: the minimum inhibitory concentration (MIC) in [5] amounted to 25 µg/mL (≈ 50.3 µM). `CCCC[C@H]1CCCCC[C@@H](OC)c2cc(O)c(c(O)c2)[C@@H](CCCC)CCC[C@@H](Cl)C[C@@H](OC)c2cc(O)c1c(O)c2` had a GI50 in assay [4] of 0.72 µM. On to `CC(C)C[C@@H]1NC(=O)[C@@H]2C[C@]3(/C=C/C(C)(C)O)c4cc(Br)ccc4N[C@H]3N2C(=O)[C@@H]2CCCN2C(=O)[C@H](C(C)C)NC(=O)[C@@H]2CCCN2C(=O)[C@H](CC(C)C)NC(=O)[C@@H]2CCCN2C(=O)[C@H](CC(C)C)NC(=O)[C@@H]2CCCN2C(=O)[C@H](Cc2ccccc2)NC1=O` (cyclo(FPLPLPVP[X1]L)), for which, in assay [24], the IC50 is 4.7 µM. For the compound `O=C(N[C@H](CO)[C@H](O)c1ccc([N+](=O)[O-])cc1)C(Cl)Cl` [CHLORAMPHENICOL], the minimal inhibitory concentration (MIC) in assay [8] was determined as 2 µg/mL (≈ 6.19 µM). On to `O=C(O)c1cn(C2CC2)c2cc(N3CCNCC3)c(F)cc2c1=O` [CIPROFLOXACIN], for which the MIC in assay [22] was determined as 0.025 µM (≈ 0.00828 µg/mL).
